{
  "source": "patent US6046238A",
  "about": "“Method for treating or preventing the spread of acne vulgaris” (TriStrata, Inc., priority 1999, dated 2000)",
  "key": {"[1]": {"test_system": "Micrococcus luteus", "test": "MIC Agar Dilution Test, Micrococcus luteus", "format": "cell-based", "conditions": "M. luteus", "from_the_text": "(§1) The following strains of microorganisms were used in Minimum Inhibitory Concentration (MIC) tests for phenyl 2-acetoxyethanoic acid in this example and for benzoyl peroxide, chlorhexidine gluconate and triclosan in the following examples. In total, five strains were used for S. aureus, five strains were used for S. epidermidis, two strains were used for M. sedentarius, three strains were used for M. luteus, two strains were used for B. epidermis, three strains were used for C. minutissium, one strain was used for S. marcescens, three strains were used for P. aeruginosa, four strains were used for E. coli, and thirty-two strains were used for P. acnes.\n(§2) Antimicrobial effects were determined based on MIC Agar Dilution Test utilizing Trypticase Soy Agar II (BBL) incorporation plates with and without 10% intralipid (Kabi Pharmacia Inc.). Initially, phenyl 2-acetoxyethanoic acid was prepared as a 2 mg/ml (0.2%) solution in water. This solution with serial dilution was incorporated into the test agar plates. The MIC test gave similar results when the same species but a different strain was used.\n(§3) Under the same test conditions described in Example 1, benzoyl peroxide was prepared as a 2.5 mg/ml (0.25%) solution in water. This solution with serial dilution was incorporated into the test agar plates. Typical test results are shown as follows.\n(§4) Under the same test conditions described in Example 1, chlorhexidine gluconate was prepared as a 2 mg/ml (0.2%) solution in water. This solution with serial dilution was incorporated into the test agar plates. Typical test results are shown as follows.\n(§5) Under the same test conditions described in Example 1, triclosan was prepared as a 10 mg/ml (1%) solution in water. This solution with serial dilution was incorporated into the test agar plates. Typical test results are shown as follows.\n(§6) Ten different species of bacteria were used in Minimum Inhibitory Concentration (MIC) tests. The bacteria include S. aureus, S. epidermidis,M. sedentarius, M. luteus, B. epidermis, C. minutissium, S. marcescens, P. aeruginosa, E. coli, and P. acnes. In addition various sources and strains of these bacteria were also included in the tests, and up to 32 different strains of P. acnes were used.\n(§7) The test substance selected from phenyl 2-acetoxyethanoic acid, benzoyl peroxide, chlorhexidine gluconate and triclosan was dissolved in water, and the solution with serial dilution was incorporated into the test agar plates. The plates containing different concentrations of test substance were inoculated with a strain of bacterium. MIC is defined as the lowest concentration of the test substance in the plate in which there is no growth of the microorganism."}, "[2]": {"test_system": "Serratia marcescens", "test": "MIC Agar Dilution Test, Serratia marcescens", "format": "cell-based", "conditions": "S. marcescens", "from_the_text": "as §1, §2, §3, §4, §5, §6, §7"}, "[3]": {"test": "reversal of corticosteroid unresponsiveness in psoriasis", "format": "in vivo, human", "conditions": "added once daily to corticosteroid twice daily; seven patients", "method": "To determine the therapeutic responsive effect of an aryl 2-acetoxyethanoicacid against psoriasis seven patient participated in this study. A test composition was prepared by dissolving 1 g phenyl 2-acetoxyethanoic acid or diphenyl 2-acetoxyethanoic acid in 2 ml ethanol. The solution thus obtained was mixed with 60 g petrolatum and 37 g mineral oil. The anhydrous ointment thus formulated was packaged in one-ounce jars.\nWhen the drug unresponsiveness to a corticosteroid occurred, the participating patients were instructed to apply in addition the test composition once daily to the lesions on the left side of the body only. Topical applications of the corticosteroid were continued twice daily to both sides of the body. […] While psoriatic lesions on the right side of the body remained unresponsive to the topical corticosteroid, the lesions on the left side started to clear after 3 to 4 weeks of additional topical application with the composition containing an aryl 2-acetoxyethanoic acid.\nAt this time the patients were instructed to shift the additional topical application to the lesions on the right side instead of the left side of the body. The psoriatic lesions on the right side of the body began to clear after 3 to 4 weeks of additional topical application with the composition containing aryl 2-acetoxyethanoic acid."}, "[4]": {"conditions": "10% intralipid, read-out: MIC Lipid"}, "[5]": {"conditions": "no lipid, read-out: MIC No Lipid"}},
  "note": "Where two headings read alike, the source gives them in different places.",
  "data": [
    {"smiles": "CC(=O)OC(C(=O)O)c1ccccc1", "note": "(centres unmarked) [phenyl 2-acetoxyethanoic acid]", "values": [
      {"measurement": "MIC", "setting": "[1]; [4]", "value": 1000, "unit": "µg/mL"},
      {"measurement": "MIC", "setting": "[1]; [5]", "value": 1000, "unit": "µg/mL"},
      {"measurement": "MIC", "setting": "[2]; [4]", "value": 1000, "unit": "µg/mL"},
      {"measurement": "MIC", "setting": "[2]; [5]", "value": 1000, "unit": "µg/mL"},
      {"measurement": "onset of improvement of psoriatic lesions, left side", "setting": "[3]", "value": "began to improve after one week"}
    ]}
  ]
}
